Test systems include HT-29; OVCAR-3; HCT-15; NCI-H460; UACC-257; NCI-H226; 786-0; MOLT-4; RPMI-8226; CCRF-CEM; TK-10; UACC-62; A549; SW-620; SK-MEL-2; U-251; SK-MEL-5; SK-OV-3; M14; SNB-75.
Common to all, as to experiment: inhibition of tumour cell growth, NCI panel, 48 h

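Step 1: Grow cells in 96-well plates. Step 2: Expose to compound for 48 hours at 5 concentrations. Step 3: Interpolate endpoints linearly; if unreached, use highest concentration. GI50 marks 50% less growth.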 The source made the active and inactive calls. Cut-off read from the data, not from the text of the source: active = GI50 up to about 1.1 µM and inactive = higher.

Take `COC(=O)c1cc2c3c(cc(N(C)C)c2[nH]1)N(C(=O)c1cc2cc(OC)c(OC)c(OC)c2[nH]1)CC3CCl` (stereo not given): the GI50 in the assay on HT-29 is 0.25 µM (active); in the assay with OVCAR-3 it was 0.00396 µM (active); with HCT-15, 0.00468 µM; in the assay on NCI-H460, 0.00252 µM (active); in the assay on UACC-257, 0.00476 µM (active); in the assay on NCI-H226, 0.00362 µM (active). Further, the GI50 was < 0.0025 µM (active) in the assay on 786-0; < 0.0025 µM (active) in the assay on MOLT-4; 0.00432 µM (active) in the assay with RPMI-8226; 0.00403 µM (active) in the assay on CCRF-CEM; 0.00968 µM (active) in the assay on TK-10; 0.00558 µM (active) with UACC-62. The GI50 in the assay with A549 is 0.00292 µM (active); with SW-620, < 0.0025 µM (active); in the assay on SK-MEL-2, 0.00762 µM (active); in the assay with U-251, < 0.0025 µM (active); in the assay on SK-MEL-5 it was 0.00333 µM (active); with SK-OV-3, 0.00738 µM (active). Moreover, the values for the GI50 with M14 and in the assay with SNB-75 were 0.00294 µM (active) and 0.0042 µM (active), respectively.

As to `CC(C)CC(N/C=C1/N=C(c2ccccc2)OC1=O)C(=O)O` (stereo not given), the GI50 in the assay with HT-29 was > 100 µM (inactive); in the assay on OVCAR-3, > 100 µM (inactive); in the assay with HCT-15, more than 100 µM; in the assay on NCI-H460, > 100 µM (inactive); in the assay on UACC-257, > 100 µM (inactive); in the assay with NCI-H226, > 100 µM (inactive). Further, the GI50 with 786-0, in the assay with MOLT-4, in the assay on RPMI-8226, in the assay with CCRF-CEM, with TK-10 and with UACC-62 was > 100 µM (inactive) each time. Further, the GI50 with A549, with SW-620, in the assay on SK-MEL-2, in the assay with U-251, in the assay on SK-MEL-5 and in the assay on SK-OV-3 was > 100 µM (inactive) in each case. Besides, the results for the GI50 in the assay with M14 and in the assay on SNB-75 were > 100 µM (inactive) and 37.3 µM (inactive), respectively.

Take `C/C(=N\NC(=O)c1ccncc1)c1sc(-n2nc(-c3ccccc3)cc2-c2ccccc2)nc1C`: the GI50 in the assay with HT-29 was > 100 µM (inactive); with OVCAR-3, 25.1 µM (inactive); in the assay with HCT-15, more than 31.6 µM; in the assay on NCI-H460, > 31.6 µM (inactive); with UACC-257 it was > 31.6 µM (inactive); in the assay on NCI-H226 it was > 64.1 µM (inactive). In addition, the GI50 is > 31.6 µM (inactive) in the assay on 786-0; 17.1 µM (inactive) with MOLT-4; 20.7 µM (inactive) with RPMI-8226; > 31.6 µM (inactive) with CCRF-CEM; > 31.6 µM (inactive) in the assay on TK-10; > 31.6 µM (inactive) with UACC-62. Also, the GI50 in the assay on A549, in the assay on SW-620, in the assay on SK-MEL-2, in the assay with U-251, with SK-MEL-5 and in the assay on SK-OV-3 was > 31.6 µM (inactive) throughout. Besides, the GI50 is > 31.6 µM (inactive) in the assay on M14 and > 37.2 µM (inactive) in the assay with SNB-75.

As for `CCN(CC)CCNC(=O)c1cc2cc(NC(=O)c3cc4cc(NC(=O)c5cc6cc(N)ccc6[nH]5)ccc4[nH]3)ccc2[nH]1`, the GI50 in the assay with HT-29 was > 100 µM (inactive); with OVCAR-3 it was > 100 µM (inactive); in the assay with HCT-15, more than 100 µM; with NCI-H460, > 100 µM (inactive); in the assay on UACC-257 it was > 100 µM (inactive); with NCI-H226, > 100 µM (inactive). The GI50 with 786-0, in the assay on MOLT-4, in the assay on RPMI-8226, in the assay on CCRF-CEM, in the assay with TK-10 and in the assay with UACC-62 was > 100 µM (inactive) in each case. Moreover, the GI50 in the assay on A549, in the assay on SW-620, in the assay with SK-MEL-2, in the assay with U-251, in the assay on SK-MEL-5 and with SK-OV-3 was > 100 µM (inactive) in each case. For the same compound, the GI50 with M14 and in the assay on SNB-75 was > 100 µM (inactive) throughout.

`CC(C)(C)OC(=O)NC(CSSCC(NC(=O)OC(C)(C)C)C(=O)O)C(=O)O` (stereo not given): the GI50 with HT-29 was > 100 µM (inactive); with OVCAR-3 it was > 100 µM (inactive); in the assay with HCT-15, more than 100 µM; with NCI-H460, > 100 µM (inactive); in the assay on UACC-257, > 100 µM (inactive); in the assay with NCI-H226, > 100 µM (inactive). The GI50 in the assay on 786-0, in the assay with MOLT-4, in the assay on RPMI-8226, in the assay on CCRF-CEM, with TK-10 and with UACC-62 was > 100 µM (inactive) throughout. Besides, the GI50 with A549, with SW-620, in the assay with SK-MEL-2, in the assay with U-251, in the assay on SK-MEL-5 and in the assay on SK-OV-3 was > 100 µM (inactive) throughout. Further, the GI50 with M14 and in the assay with SNB-75 was > 100 µM (inactive) each time.

`CC(C)C1(O)C(=O)N(c2c(F)c(F)c(F)c(F)c2F)C(=S)N1CCSc1ccccc1` (stereo not given): the GI50 with HT-29 was 18.4 µM (inactive); in the assay with OVCAR-3, 16.4 µM (inactive); with HCT-15, 17.9 µM; in the assay with NCI-H460, 19.2 µM (inactive); with UACC-257, 18.2 µM (inactive); in the assay on NCI-H226, 20.7 µM (inactive). The GI50 in the assay with 786-0 was 19.1 µM (inactive); in the assay on MOLT-4, 15.1 µM (inactive); with RPMI-8226 it was 10.9 µM (inactive); in the assay on CCRF-CEM it was 13.9 µM (inactive); in the assay with TK-10 it was 14.7 µM (inactive); in the assay with UACC-62, 15.8 µM (inactive). For the same compound, the GI50 with A549 was 15.3 µM (inactive); in the assay with SW-620 it was 16.6 µM (inactive); with SK-MEL-2, 17.7 µM (inactive); in the assay on U-251, 18.2 µM (inactive); in the assay on SK-MEL-5 it was 17.4 µM (inactive); in the assay with SK-OV-3 it was 17.3 µM (inactive). Further, the GI50 in the assay on M14 was 17.5 µM (inactive); with SNB-75, 16.7 µM (inactive).

`O=C(NNC(=O)c1ccccc1O)c1ccc(O)cc1`: the GI50 in the assay on HT-29 is 37.4 µM (inactive); in the assay with OVCAR-3, 38.4 µM (inactive); in the assay with HCT-15, 19.2 µM; with NCI-H460, 31.5 µM (inactive); in the assay on UACC-257, 89.1 µM (inactive); in the assay on NCI-H226, 14.8 µM (inactive). Further, the GI50 with 786-0 is 46.8 µM (inactive); in the assay on MOLT-4 it was 36.4 µM (inactive); in the assay on RPMI-8226 it was 81.5 µM (inactive); in the assay on CCRF-CEM it was 70.8 µM (inactive); with TK-10 it was > 100 µM (inactive); in the assay on UACC-62 it was 28.1 µM (inactive). The GI50 in the assay on A549 was 38.8 µM (inactive); with SW-620, 81.3 µM (inactive); with SK-MEL-2, 22.5 µM (inactive); in the assay with U-251, > 100 µM (inactive); with SK-MEL-5 it was > 100 µM (inactive); with SK-OV-3, 33.4 µM (inactive). Moreover, the GI50 in the assay on M14 was 23.7 µM (inactive); with SNB-75, 24.4 µM (inactive).

For the compound `COC1O[C@H]2CCN(C(=O)OCc3ccccc3)[C@H]2[C@H]1OCc1ccccc1` (stereo not given in full), the GI50 is 40.9 µM (inactive) in the assay on HT-29; 42.6 µM (inactive) in the assay on OVCAR-3; 36.5 µM in the assay on HCT-15; 44.3 µM (inactive) in the assay on NCI-H460; 43.8 µM (inactive) in the assay with UACC-257; 78 µM (inactive) in the assay with NCI-H226. The GI50 is > 100 µM (inactive) with 786-0; 36 µM (inactive) in the assay on MOLT-4; 41 µM (inactive) in the assay with RPMI-8226; 34.9 µM (inactive) in the assay with CCRF-CEM; > 41.4 µM (inactive) with TK-10; 21.5 µM (inactive) in the assay on UACC-62. In addition, the GI50 in the assay on A549 is 4.33 µM (inactive); in the assay on SW-620 it was 50.2 µM (inactive); in the assay on SK-MEL-2 it was 29.8 µM (inactive); in the assay with U-251 it was 45.9 µM (inactive); with SK-MEL-5, 24.1 µM (inactive); in the assay on SK-OV-3, 23.6 µM (inactive). The figures for the GI50 in the assay with M14 and in the assay with SNB-75 were 46.3 µM (inactive) and 41.9 µM (inactive), respectively.

On to `CC1CCC2C(C(=O)O[C@H]3C4CCO[C@@H](OC5OC(CO)C(O)C(O)C5O)C4[C@@]4(CO)O[C@@H]34)=CO[C@@H](OC3OC(CO)C(O)C(O)C3O)C12` (stereo not given in full), for which the GI50 in the assay on HT-29 was > 10 µM (inactive); with OVCAR-3, > 10 µM (inactive); in the assay with HCT-15 it was more than 10 µM; with NCI-H460, > 10 µM (inactive); in the assay with UACC-257 it was > 10 µM (inactive); in the assay with NCI-H226, > 10 µM (inactive). Further, the GI50 with 786-0, with MOLT-4, in the assay on RPMI-8226, in the assay with CCRF-CEM, in the assay with TK-10 and in the assay on UACC-62 was > 10 µM (inactive) throughout. For the same compound, the GI50 in the assay on A549, in the assay on SW-620, in the assay with SK-MEL-2, in the assay on U-251, with SK-MEL-5 and in the assay on SK-OV-3 was > 10 µM (inactive) each time. For the same compound, the GI50 in the assay with M14 and in the assay on SNB-75 was > 10 µM (inactive) throughout.

In the case of `CCCCCCCCCCCCCCCCP(=O)([O-])OCC[N+](C)(C)C`, the GI50 was 12.7 µM (inactive) in the assay with HT-29; 17.1 µM (inactive) in the assay on OVCAR-3; 6.56 µM in the assay with HCT-15; 5.75 µM (inactive) in the assay on NCI-H460; 16.9 µM (inactive) in the assay with UACC-257; 23 µM (inactive) with NCI-H226. Further, the GI50 in the assay on 786-0 was 7.46 µM (inactive); in the assay on MOLT-4, 17.2 µM (inactive); in the assay with RPMI-8226, 15.3 µM (inactive); in the assay with CCRF-CEM, 8.47 µM (inactive); in the assay with TK-10, 1.5 µM (inactive); in the assay on UACC-62, 13.9 µM (inactive). In addition, the GI50 with A549 was 18.1 µM (inactive); in the assay on SW-620, 14.5 µM (inactive); in the assay with SK-MEL-2 it was 15.1 µM (inactive); with U-251 it was 16.7 µM (inactive); with SK-MEL-5, 16 µM (inactive); in the assay on SK-OV-3, 7.4 µM (inactive). In addition, the GI50 is 15.3 µM (inactive) in the assay with M14 and 14.8 µM (inactive) with SNB-75.

Values taken from ChEMBL document CHEMBL1201862, “PubChem BioAssay data set” (2004).
